Measured values: US10028960B2, “Pyrimidine compounds as JAK kinase inhibitors” (THERAVANCE BIOPHARMA R&D IP, LLC, priority 2016, dated 2018)

Columns and labels:
JAK1 = JAK1 (Homo sapiens (Human), UniProt P23458); test: LanthaScreen JAK biochemical assay, JAK1; conditions: for Ki: read-out: JAK 1 (pKi) (converted)
Procedure: A panel of four LanthaScreen JAK biochemical assays (JAK1, 2, 3 and Tyk2) were carried in a common kinase reaction buffer (50 mM HEPES, pH 7.5, 0.01% Brij-35, 10 mM MgCl2, and 1 mM EGTA). Recombinant GST-tagged JAK enzymes and a GFP-tagged STAT1 peptide substrate were obtained from Life Technologies.

[1] = test system: IL-13 induced STAT6 phosphorylation in HT-29 human colorectal adenocarcinoma cells; test: Cellular JAK potency assay: inhibition of IL-13 induced STAT6 phosphorylation; type: cell-based; conditions: IL-13 induced STAT6 phosphorylation, HT-29 cells; for IC50: Homo sapiens, read-out: HT-29 (pIC50) (converted)
Procedure: The potency of test compounds for inhibition of the JAK-dependent cytokine interleuken-13 (IL-13) was assessed by measuring IL-13 (IL-13, R&D Systems) induced STAT6 phosphorylation in HT-29 human colorectal adenocarcinoma cells (ATCC).
The anti-STAT6 antibody (Cell Signaling Technologies) was conjugated to AlphaScreen acceptor beads (Perkin Elmer), while the anti-pSTAT6 (pTyr641) antibody (Cell Signaling Technologies) was biotinylated using EZ-Link Sulfo-NHS-Biotin (Thermo Scientific).
HT-29 cells were grown at 37° C. in a 5% CO2 humidified incubator in McCoy's 5a Modified medium (ATCC) supplemented with 10% FBS (Hyclone), 100 U/mL penicillin, 100 μg/mL streptomycin (Life Technologies), and 2 mM GlutaMAX (Life Technologies). On day 1 of the assay, cells were seeded at a 7,500 cells/well density in white poly-D-lysine-coated 384-well plates (Corning) with 25 μL medium, and were allowed to adhere overnight in the incubator. On day 2 of the assay, the medium was removed and replaced with 12 μL of assay buffer (Hank's Balanced Salt Solution/HBSS, 25 mM HEPES, and 1 mg/ml bovine serum albumin/BSA) containing dose-responses of test compounds. Compounds were serially diluted in DMSO and then diluted another 1000-fold in media to bring the final DMSO concentration to 0.1%. Cells were incubated with test compounds at 37° C. for 1 h, and followed by the addition of 12 μL of pre-warmed IL-13 (12 ng/ml in assay buffer) for stimulation. After incubating at 37° C. for 30 min, the assay buffer (containing compound and IL-13) was removed, and 10 μL of cell lysis buffer (25 mM HEPES, 0.1% SDS, 1% NP-40, 5 mM MgCl2, 1.3 mM EDTA, 1 mM EGTA, and supplement with Complete Ultra mini protease inhibitors and PhosSTOP from Roche Diagnostics). The plates were shaken at ambient temperature for 30 min before the addition of detection reagents. A mixture of biotin-anti-pSTAT6 and anti-STAT6 conjugated acceptor beads was added first and incubated at ambient temperature for 2 h, followed by the addition of streptavidin conjugated donor beads (Perkin Elmer). After a minimum of 2 h incubation, the assay plates were read on the EnVision plate reader.
Results were expressed as the negative logarithm of the IC50 value, pIC50.

JAK1, sequence (P23458 whole entry): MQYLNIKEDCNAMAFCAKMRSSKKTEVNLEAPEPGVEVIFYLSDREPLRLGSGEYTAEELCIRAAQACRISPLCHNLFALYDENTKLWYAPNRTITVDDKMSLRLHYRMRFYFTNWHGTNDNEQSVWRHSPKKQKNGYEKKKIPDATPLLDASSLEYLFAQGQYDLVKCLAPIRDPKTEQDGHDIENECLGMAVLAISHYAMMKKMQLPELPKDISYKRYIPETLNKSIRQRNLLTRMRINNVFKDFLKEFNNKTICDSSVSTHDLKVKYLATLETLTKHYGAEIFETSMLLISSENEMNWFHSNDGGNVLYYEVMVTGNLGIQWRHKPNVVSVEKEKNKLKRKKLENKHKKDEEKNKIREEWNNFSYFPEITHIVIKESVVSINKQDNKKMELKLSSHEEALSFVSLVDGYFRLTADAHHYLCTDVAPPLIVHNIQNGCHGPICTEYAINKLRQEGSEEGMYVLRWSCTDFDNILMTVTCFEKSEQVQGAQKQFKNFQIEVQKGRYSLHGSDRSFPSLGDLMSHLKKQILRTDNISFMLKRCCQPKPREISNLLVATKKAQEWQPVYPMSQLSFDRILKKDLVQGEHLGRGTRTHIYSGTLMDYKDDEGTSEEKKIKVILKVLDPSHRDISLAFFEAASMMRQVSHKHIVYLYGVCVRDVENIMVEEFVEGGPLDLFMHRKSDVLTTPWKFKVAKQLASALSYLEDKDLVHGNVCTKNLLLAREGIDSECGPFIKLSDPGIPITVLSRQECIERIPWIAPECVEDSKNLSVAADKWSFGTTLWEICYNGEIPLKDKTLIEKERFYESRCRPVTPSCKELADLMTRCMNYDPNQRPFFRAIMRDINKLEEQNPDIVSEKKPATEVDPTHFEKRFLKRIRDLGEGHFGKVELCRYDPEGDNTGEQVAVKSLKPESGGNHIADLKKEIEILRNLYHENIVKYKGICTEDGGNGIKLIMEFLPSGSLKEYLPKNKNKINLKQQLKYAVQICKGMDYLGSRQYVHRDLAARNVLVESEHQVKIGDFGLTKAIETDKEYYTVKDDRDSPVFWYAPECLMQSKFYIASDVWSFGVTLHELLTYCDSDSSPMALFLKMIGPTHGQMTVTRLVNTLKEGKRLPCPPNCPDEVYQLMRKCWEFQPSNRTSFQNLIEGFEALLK

SMILES	Ki (JAK1)	IC50 [1]	JAK 1 (pKi) (JAK1)	HT-29 (pIC50) [1]
COc1cc(Nc2cc(CO)[nH]n2)nc(N[C@@H]2C[C@H]3CC[C@@H](C2)N3S(=O)(=O)c2cccnc2)n1 [Example 1-3]	0.001 to 0.01 µM	0.2 to 1 µM		
COc1cc(Nc2cc(CO)[nH]n2)nc(N[C@@H]2C[C@H]3CC[C@@H](C2)N3S(=O)(=O)N2CCC2)n1 [Example 1-1]	0.001 to 0.01 µM	0.0316 to 0.2 µM		
COc1cc(Nc2cc(CO)[nH]n2)nc(N[C@@H]2C[C@H]3CCC[C@@H](C2)N3S(=O)(=O)N2CCC2)n1 [Example 1-5, (3-((2-(((1R,3s,5S)-9-(azetidin-1-ylsulfonyl)-9-azabicyclo[3.3.1]nonan-3-yl)amino)-6-methoxypyrimidin-4-yl)amino)-1H-pyrazol-5-yl)methanol]			B (B represents a pKi value between 9 and 10 (Ki between 1 nM and 0.1 nM))	B (B represents a pIC50 value between 6.7 and 7.5 (IC50 between 200 nM and 32 nM))
COc1cc(Nc2cc(CO)[nH]n2)nc(N[C@@H]2C[C@H]3CCC[C@@H](C2)N3Cc2ccncc2)n1 [Example 2-2]			B (B represents a pKi value between 9 and 10 (Ki between 1 nM and 0.1 nM))	B (B represents a pIC50 value between 6.7 and 7.5 (IC50 between 200 nM and 32 nM))
COc1cc(Nc2cc(CO)[nH]n2)nc(N[C@@H]2C[C@H]3CCC[C@@H](C2)N3S(=O)(=O)c2cccnc2)n1 [Example 1-11, (3-((6-methoxy-2-(((1R,3s,5S)-9-(pyridin-3-ylsulfonyl)-9-azabicyclo[3.3.1]nonan-3-yl)amino)pyrimidin-4-yl)amino)-1H-pyrazol-5-yl)methanol]			B (B represents a pKi value between 9 and 10 (Ki between 1 nM and 0.1 nM))	B (B represents a pIC50 value between 6.7 and 7.5 (IC50 between 200 nM and 32 nM))
COc1cc(Nc2cc(CO)[nH]n2)nc(N[C@@H]2C[C@H]3CCC[C@@H](C2)N3S(=O)(=O)N2CC(C#N)C2)n1 [Example 1-6, 1-(((1R,3s,5S)-3-((4-((5-(hydroxymethyl)-1H-pyrazol-3-yl)amino)-6-methoxypyrimidin-2-yl)amino)-9-azabicyclo[3.3.1]nonan-9-yl)sulfonyl)azetidine-3-carbonitrile]			A (A represents a pKi value≥10 (Ki≤0.1 nM))	B (B represents a pIC50 value between 6.7 and 7.5 (IC50 between 200 nM and 32 nM))
COc1cc(Nc2cc(CO)[nH]n2)nc(N(C)[C@@H]2C[C@H]3CCC[C@@H](C2)N3S(=O)(=O)c2cncc(F)c2)n1 [Example 1-19, (3-((2-(((1R,3s,5S)-9-((5-fluoropyridin-3-yl)sulfonyl)-9-azabicyclo[3.3.1]nonan-3-yl)(methyl)amino)-6-methoxypyrimidin-4-yl)amino)-1H-pyrazol-5-yl)methanol]			B (B represents a pKi value between 9 and 10 (Ki between 1 nM and 0.1 nM))	A (A represents a pIC50 value≥7.5 (IC50≤32 nM))
COc1cc(Nc2cc(CO)[nH]n2)nc(N[C@@H]2C[C@H]3CCC[C@@H](C2)N3Cc2ccc(C#N)nc2)n1 [Example 6, 5-(((1R,3s,5S)-3-((4-((5-(hydroxymethyl)-1H-pyrazol-3-yl)amino)-6-methoxypyrimidin-2-yl)amino)-9-azabicyclo[3.3.1]nonan-9-yl)methyl)picolinonitrile]	0.0001 to 0.001 µM			
CCS(=O)(=O)N1[C@@H]2CCC[C@H]1C[C@H](Nc1nc(Nc3cc(CO)[nH]n3)cc(OC)n1)C2 [Example 1-9, (3-((2-(((1R,3s,5S)-9-(ethylsulfonyl)-9-azabicyclo[3.3.1]nonan-3-yl)amino)-6-methoxypyrimidin-4-yl)amino)-1H-pyrazol-5-yl)methanol]			B (B represents a pKi value between 9 and 10 (Ki between 1 nM and 0.1 nM))	B (B represents a pIC50 value between 6.7 and 7.5 (IC50 between 200 nM and 32 nM))
COc1cc(Nc2cc(CO)[nH]n2)nc(N(C)[C@@H]2C[C@H]3CCC[C@@H](C2)N3Cc2ccncc2)n1 [Example 2-7, (3-((6-methoxy-2-(methyl((1R,3s,5S)-9-(pyridin-4-ylmethyl)-9-azabicyclo[3.3.1]nonan-3-yl)amino)pyrimidin-4-yl)amino)-1H-pyrazol-5-yl)methanol]			B (B represents a pKi value between 9 and 10 (Ki between 1 nM and 0.1 nM))	B (B represents a pIC50 value between 6.7 and 7.5 (IC50 between 200 nM and 32 nM))
COc1cc(Nc2cc(CO)[nH]n2)nc(N(C)[C@@H]2C[C@H]3CCC[C@@H](C2)N3Cc2ccnc(C#N)c2)n1 [Example 2-8, 4-(((1R,3s,5S)-3-((4-((5-(hydroxymethyl)-1H-pyrazol-3-yl)amino)-6-methoxypyrimidin-2-yl)(methyl)amino)-9-azabicyclo[3.3.1]nonan-9-yl)methyl)picolinonitrile]			B (B represents a pKi value between 9 and 10 (Ki between 1 nM and 0.1 nM))	B (B represents a pIC50 value between 6.7 and 7.5 (IC50 between 200 nM and 32 nM))
COc1cc(Nc2cc(CO)[nH]n2)nc(N(C)C2C[C@H]3CCC[C@@H](C2)N3C(=O)C(F)F)n1 (stereo partly drawn) [Example 9, 2,2-difluoro-1-((1R,3s,5S)-3-((4-((5-(hydroxymethyl)-1H-pyrazol-3-yl)amino)-6-methoxypyrimidin-2-yl)(methyl)amino)-9-azabicyclo[3.3.1]nonan-9-yl)ethan-1-one]		0.0316 to 0.2 µM		
COc1cc(Nc2cc(CO)[nH]n2)nc(N[C@@H]2C[C@H]3CCC[C@@H](C2)N3C(=O)C(F)F)n1 [Example 3-1, 2,2-difluoro-1-((1R,3s,5S)-3-((4-((5-(hydroxymethyl)-1H-pyrazol-3-yl)amino)-6-methoxypyrimidin-2-yl)amino)-9-azabicyclo[3.3.1]nonan-9-yl)ethan-1-one]			B (B represents a pKi value between 9 and 10 (Ki between 1 nM and 0.1 nM))	
COc1cc(Nc2cc(CO)[nH]n2)nc(N[C@@H]2C[C@H]3CCC[C@@H](C2)N3Cc2ccnc(C#N)c2)n1 [Example 2-3, 4-(((1R,3s,5S)-3-((4-((5-(hydroxymethyl)-1H-pyrazol-3-yl)amino)-6-methoxypyrimidin-2-yl)amino)-9-azabicyclo[3.3.1]nonan-9-yl)methyl)picolinonitrile]			B (B represents a pKi value between 9 and 10 (Ki between 1 nM and 0.1 nM))	B (B represents a pIC50 value between 6.7 and 7.5 (IC50 between 200 nM and 32 nM))
COc1cc(Nc2cc(CO)[nH]n2)nc(N(C)[C@@H]2C[C@H]3CCC[C@@H](C2)N3S(=O)(=O)CC2CC2)n1 [Example 1-18, (3-((2-(((1R,3s,5S)-9-((cyclopropylmethyl)sulfonyl)-9-azabicyclo[3.3.1]nonan-3-yl)(methyl)amino)-6-methoxypyrimidin-4-yl)amino)-1H-pyrazol-5-yl)methanol]			B (B represents a pKi value between 9 and 10 (Ki between 1 nM and 0.1 nM))	
COc1cc(Nc2cc(CO)[nH]n2)nc(N[C@@H]2C[C@H]3CCC[C@@H](C2)N3S(=O)(=O)CC2CC2)n1 [Example 1-10, (3-((2-(((1R,3s,5S)-9-((cyclopropylmethyl)sulfonyl)-9-azabicyclo[3.3.1]nonan-3-yl)amino)-6-methoxypyrimidin-4-yl)amino)-1H-pyrazol-5-yl)methanol]			B (B represents a pKi value between 9 and 10 (Ki between 1 nM and 0.1 nM))	
COc1cc(Nc2cc(CO)[nH]n2)nc(N[C@@H]2C[C@H]3CC[C@@H](C2)N3S(=O)(=O)c2ccccc2)n1 [Example 1-4]	0.01 to 0.0316 µM			
COc1cc(Nc2cc(CO)[nH]n2)nc(N[C@@H]2C[C@H]3CCC[C@@H](C2)N3S(=O)(=O)c2cncc(F)c2)n1 [Example 1-7, (3-((2-(((1R,3s,5S)-9-((5-fluoropyridin-3-yl)sulfonyl)-9-azabicyclo[3.3.1]nonan-3-yl)amino)-6-methoxypyrimidin-4-yl)amino)-1H-pyrazol-5-yl)methanol]			B (B represents a pKi value between 9 and 10 (Ki between 1 nM and 0.1 nM))	
